{"source": "paper PMC8894198", "about": "“Biosynthetic Microcin J25 Exerts Strong Antibacterial, Anti-Inflammatory Activities, Low Cytotoxicity Without Increasing Drug-Resistance to Bacteria Target” (Frontiers in Immunology, 2022)", "key": {"[1]": {"system": "E. coli LKFZ F2", "format": "cell-based", "settings": "source pig stool", "description": "(§1) The minimum inhibitory concentration (MIC) refers to the lowest concentration that can produce a significant hindrance to bacterial growth in a drug sensitivity test by adopting a broth dilution, with certain refinements and modifications based on the previous description ([25], [26]). In short, MccJ25 was dissolved in sterilized distilled water (SDW), serial 2-fold dilutions were prepared in Mueller-Hinton broth (MHB) through a 96-well microtiter plate, and the final concentration of MccJ25 was maintained in the range of 0.003125 to 256 μg/mL. Then, 2 μL of standard and clinically relevant overnight broth cultures of bacteria were inoculated into each well at a concentration of 5 × 10^6 CFU/mL. Microtiter plates were incubated at 37°C for one full day. Two groups were set up: positive (medium with inoculum) and negative (medium only) controls. The minimum bactericidal concentration (MBC) was measured in LB medium and refers to the first drug dilution value at which the initial bacterial concentration was reduced by 99.99%. The final analysis was determined by the results of three replicated and independent experiments. To further assess and clarify the antimicrobial activity of MccJ25, the protective ability against E. coli adhesion, live/dead assay, and killing curve were performed, the detailed methods were provided in Supplementary Materials ."}, "[2]": {"system": "E. coli SWI 437", "format": "cell-based", "settings": "source pig stool", "description": "as §1"}, "[3]": {"system": "Salmonella CATT LX9", "format": "cell-based", "settings": "source mastitis pathogens", "description": "as §1"}, "[4]": {"system": "Salmonella CATT LX2", "format": "cell-based", "settings": "source mastitis pathogens", "description": "as §1"}, "[5]": {"system": "E. coli CVCC1543", "format": "cell-based", "description": "as §1"}, "[6]": {"system": "E. coli CVCC1522", "format": "cell-based", "description": "as §1"}, "[7]": {"system": "E. coli 521ZQE", "format": "cell-based", "settings": "source pig tissue, three independent experiments", "description": "as §1"}, "[8]": {"system": "E. coli K88", "format": "cell-based", "description": "as §1"}, "[9]": {"system": "E. coli K88", "assay": "Electron microscopy (SEM, TEM) of treated bacteria", "format": "cell-based", "description": "Scanning electron microscope (SEM) was performed to test the morphological features of E. coli K88 cells by comparing cells incubated in the absence (control) or presence of MccJ25. For SEM sample preparation, the standard protocol was used based on our previous report ([26]) with slight modifications. Overnight E. coli K88 cultures were inoculated and grown to the mid-logarithmic phase in the fresh LB medium at 37°C for 2 h, then harvested by centrifugation, washed twice with PBS and re-suspended in the same buffer. Approximately 2 × 10^7 cells were incubated with 1 and 2 × MIC MccJ25 at 37°C for 1 h. Thereafter, cells were pooled and centrifuged at 5000 g for 5 min. Bacterial pellets were washed 3 times with PBS and centrifuged after each wash. Cells were fixed with 2.5% glutaraldehyde at 4°C overnight and washed 2 times with PBS. They were then harvested, post-fixed with 1% osmium tetroxide for 1 h and dehydrated for 15 min each in a graded ethanol series (50, 70, 80, 90, 95 and 100%). Cells were then treated with absolute acetone for 20 min, a mixture of alcohol and iso-amyl acetate (1:1) for 30 min and pure iso-amyl acetate for 1 h. Lastly, samples were dehydrated in a critical point dryer (Model HCP-2, Hitachi, Chiyoda-ku, Tokyo, Japan) with liquid CO2. The dehydrated samples were coated with gold-palladium and observed by SEM (Model EVO MA10 XVP, Carl Zeiss, Jena, GmbH, Germany). […]"}, "[10]": {"system": "E. coli K88", "assay": "Sytox Green influx (membrane permeabilization)", "format": "cell-based", "settings": "0.5 × to 5 × MIC, dose dependent; ex 485 nm, em 520 nm", "description": "E. coli K88 cells were incubated at 37°C until growth reached the mid-log phase stage, and the cells were washed and resuspended in 10 mM NaH2PO4, pH 7.2 (2 × 10^7/mL). Cells were then incubated with […] Sytox Green for 15 min in a light-free environment."}, "[11]": {"system": "S. pullorum CVCC1791", "assay": "MIC broth dilution, standard strain", "format": "cell-based, Salmonella pullorum", "settings": "lowest MIC value, highly sensitive standard strain", "description": "as §1"}, "[12]": {"system": "E. coli K88", "format": "cell-based", "settings": "sub-MIC levels, 25-d passage period; six biological replicates", "description": "To quantify the production status of the bacteria, the bacterial density was measured after incubating for 24 h. Cultures with the second highest concentration allowed to grow (OD600 ≥ 2) were diluted 1:100 with MccJ25 MHB at different concentrations than those described above. Cultures that grew above the indicated MIC levels were plated on LB agar plates, and their MIC levels were determined by the broth macrodilution method."}, "[13]": {"settings": "LB medium, 99.99% reduction, three independent experiments"}, "[14]": {"settings": "broth dilution in MHB, 37°C, three independent experiments"}, "[15]": {"settings": "broth dilution in MHB, 37°C, one day, three independent experiments"}}, "note": "Where “and” joins values, the source holds several entries; their conditions need not be identical. Equal values may be shown once. Where a SMILES comes first, the peptide text is derived from it. Bridges are numbered along the chain shown (N, C = ends).", "data": [{"smiles": "CC[C@H](C)[C@H](NC(=O)CNC(=O)[C@@H](NC(=O)[C@H](Cc1ccccc1)NC(=O)[C@H](Cc1ccc(O)cc1)NC(=O)[C@@H]1CCC(=O)NCC(=O)NCC(=O)N[C@@H](C)C(=O)NCC(=O)N[C@@H](Cc2c[nH]cn2)C(=O)N[C@@H](C(C)C)C(=O)N2CCC[C@H]2C(=O)N1)C(C)C)C(=O)NCC(=O)N[C@H](C(=O)N1CCC[C@H]1C(=O)N[C@H](C(=O)N[C@@H](CO)C(=O)N[C@@H](Cc1ccccc1)C(=O)N[C@@H](Cc1ccc(O)cc1)C(=O)NCC(=O)O)[C@@H](C)CC)[C@@H](C)O", "note": "[MccJ25, microcin J25] (GGAGHVPEYFVGIGTPISFYG-OH; lactam N-8 (inferred); C-terminus assumed)", "values": [{"measurement": "MBC", "setting": "[1]; [13]", "result": 0.500, "unit": "µg/mL"}, {"measurement": "MIC", "setting": "[1]; [14]", "result": 0.250, "unit": "µg/mL"}, {"measurement": "MIC/MBC", "setting": "[1]; ratio", "result": 0.500}, {"measurement": "MBC", "setting": "[2]; [13]", "result": 0.250, "unit": "µg/mL"}, {"measurement": "MIC", "setting": "[2]; [14]", "result": 0.030, "unit": "µg/mL"}, {"measurement": "MIC/MBC", "setting": "[2]; ratio", "result": 0.120}, {"measurement": "MBC", "setting": "[3]; [13]", "result": 0.125, "unit": "µg/mL"}, {"measurement": "MIC", "setting": "[3]; [14]", "result": 0.060, "unit": "µg/mL"}, {"measurement": "MIC/MBC", "setting": "[3]; ratio", "result": 0.480}, {"measurement": "MBC", "setting": "[4]; [13]", "result": 0.125, "unit": "µg/mL"}, {"measurement": "MIC", "setting": "[4]; [14]", "result": 0.030, "unit": "µg/mL"}, {"measurement": "MIC/MBC", "setting": "[4]; ratio", "result": 0.240}, {"measurement": "MBC", "setting": "[5]; [13]", "result": 0.250, "unit": "µg/mL"}, {"measurement": "MIC", "setting": "[5]; [15]", "result": "0.03 µg/mL and 0.030 µg/mL"}, {"measurement": "MIC/MBC", "setting": "[5]; ratio", "result": 0.120}, {"measurement": "MBC", "setting": "[6]; [13]", "result": 0.500, "unit": "µg/mL"}, {"measurement": "MIC", "setting": "[6]; [15]", "result": "0.03 µg/mL and 0.030 µg/mL"}, {"measurement": "MIC/MBC", "setting": "[6]; ratio", "result": 0.060}, {"measurement": "MBC", "setting": "[7]; LB medium, 99.99% reduction", "result": 2.000, "unit": "µg/mL"}, {"measurement": "MIC", "setting": "[7]; broth dilution in MHB, 37°C", "result": 0.250, "unit": "µg/mL"}, {"measurement": "MBC", "setting": "[8]; [13]", "result": 0.500, "unit": "µg/mL"}, {"measurement": "MIC", "setting": "[8]; [15]", "result": 0.250, "unit": "µg/mL"}, {"measurement": "MIC/MBC", "setting": "[8]; ratio", "result": 0.500}, {"measurement": "cell morphology by SEM", "setting": "[9]; 1 × and 2 × MIC, 60 min", "result": "filamentous and elongated"}, {"measurement": "cell membranes by TEM", "setting": "[9]; 1 ×, 2 × and 4 × MIC, 0.5 and 1 h", "result": "disrupted"}, {"measurement": "Sytox Green fluorescence / membrane integrity", "setting": "[10]", "result": "membrane integrity was significantly disrupted"}, {"measurement": "MIC", "setting": "[11]", "result": 0.03, "unit": "µg/mL"}, {"measurement": "resistant mutants during serial passage", "setting": "[12]", "result": "No resistant mutants were detected"}]}]}
